Assay results from PMC2823940 (Bioorganic chemistry, 2009).
“Also recorded” adds a separate entry of the source. Blank lines part the entries; values can stand above or below the molecule they belong to.

How the values were obtained:
HpAgD [1] = molecular target: T1, HpAgD (Helicobacter pylori, UniProt O24890); test: Determination of IC50 values against HpAgD; type: biochemical; settings: for inhibition of HpAgD: concentrations as high as 500 μM
PAD4 = PAD4 (Homo sapiens, UniProt Q9UM07); test: PAD4 inhibition; type: biochemical; settings: for inhibition of PAD4: concentrations as high as 1 mM
HpAgD [2] = molecular target: T1, HpAgD; test: Inactivation kinetics of HpAgD; type: biochemical
HpAgD [3] = molecular target: T1, HpAgD; test: Irreversibility of inactivation; type: biochemical; settings: 1.0 mM inhibitor, 1 h at 37 °C, dialyzed 20 h
HpAgD [4] = molecular target: T1, HpAgD; test: Substrate protection experiments; type: biochemical; settings: agmatine 0.5 vs 1.0 mM; ABFA 500 μM or ABCA 175 μM
HpAgD [5] = molecular target: T1, HpAgD; test: Site of inactivator modification; settings: 5 eq. inactivator, 30 min, tryptic digest
[6] = Stability in aqueous buffer; type: physicochemical; settings: not shown
D198A HpAgD = type: biochemical, Helicobacter pylori
Wild Type HpAgD = molecular target: T2, Wild Type HpAgD (Helicobacter pylori, UniProt O24890); test: HpAgD activity assay; settings: for ability to serve as HpAgD substrate: known PAD substrates
T2 sequence (O24890 1-330): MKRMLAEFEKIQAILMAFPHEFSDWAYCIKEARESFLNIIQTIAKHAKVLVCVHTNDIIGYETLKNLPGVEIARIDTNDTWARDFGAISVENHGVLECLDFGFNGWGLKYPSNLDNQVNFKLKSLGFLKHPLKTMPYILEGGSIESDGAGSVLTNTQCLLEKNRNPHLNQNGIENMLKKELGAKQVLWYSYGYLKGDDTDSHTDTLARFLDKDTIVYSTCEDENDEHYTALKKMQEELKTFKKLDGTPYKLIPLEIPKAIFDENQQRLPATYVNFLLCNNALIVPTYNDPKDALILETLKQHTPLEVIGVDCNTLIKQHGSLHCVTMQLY

HpAgD [7] = molecular target: T1, HpAgD; test: Metal inhibition of HpAgD; type: biochemical; settings: 15 min pre-incubation with metal ion, 5.0 mM agmatine
N=C(N)NCCCCN = test: purified protein, by the assay type; settings: other: steady state, D198A HpAgD; pH 8.0; 37.0 °C
[8] = molecular target: Helicobacter pylori agmatine deiminase (HpAgD), untagged wild type (Helicobacter pylori) (UniProt O24890); test: SEC
[9] = substrate: N=C(N)NCCCCN; test: purified protein, by the assay type; settings: other: steady state, Wild Type HpAgD, pH 8.0, 37 °C
[10] = read-out: IC50 HpAgD, 15 min pre-incubation, 0.5 mM Agmatine

Chain of PAD4 (Q9UM07 whole entry): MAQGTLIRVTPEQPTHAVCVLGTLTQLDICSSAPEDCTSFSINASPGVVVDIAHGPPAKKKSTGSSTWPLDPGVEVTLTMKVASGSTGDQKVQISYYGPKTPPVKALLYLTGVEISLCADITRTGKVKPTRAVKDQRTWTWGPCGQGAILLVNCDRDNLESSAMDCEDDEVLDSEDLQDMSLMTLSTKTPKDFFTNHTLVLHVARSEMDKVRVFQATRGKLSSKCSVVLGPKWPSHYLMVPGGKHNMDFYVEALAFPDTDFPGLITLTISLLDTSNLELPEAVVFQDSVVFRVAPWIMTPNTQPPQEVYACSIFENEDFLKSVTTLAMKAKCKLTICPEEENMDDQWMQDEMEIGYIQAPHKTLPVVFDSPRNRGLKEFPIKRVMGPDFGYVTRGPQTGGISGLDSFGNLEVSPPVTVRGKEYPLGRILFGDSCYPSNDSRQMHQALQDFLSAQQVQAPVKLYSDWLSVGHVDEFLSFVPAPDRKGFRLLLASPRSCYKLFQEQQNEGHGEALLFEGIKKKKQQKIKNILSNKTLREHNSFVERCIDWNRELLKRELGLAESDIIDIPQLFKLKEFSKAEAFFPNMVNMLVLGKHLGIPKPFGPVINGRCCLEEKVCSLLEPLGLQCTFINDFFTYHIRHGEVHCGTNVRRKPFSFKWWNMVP

Molecule: N=C(CCl)NCCCCN [ABCA, N-(4-aminobutyl)-2-chloro-ethanimidamide]
- IC50 (HpAgD [1]): 0.87 ± 0.03 µM
- IC50 (PAD4): > 1000 µM
- inhibition of PAD4 (PAD4): essentially no inhibition was observed
- Ki (HpAgD [2]): 1200 ± 234 µM
- kinact/KI (HpAgD [2]): 208 M⁻¹ s⁻¹
- residual activity after dialysis (irreversibility) (HpAgD [3]): enzyme activity was not recovered; also recorded: irreversibly inhibit HpAgD
- substrate protection against inactivation (HpAgD [4]): substrate can protect against enzyme inactivation
- site of modification (HpAgD [5]): modifying Cys324
- stability in aqueous buffer [6]: excellent stability

Molecule: N=C(CF)NCCCCN [ABFA, N-(4-aminobutyl)-2-fluoro-ethanimidamide]
- IC50 (HpAgD [1]): 6.8 ± 0.26 µM
- IC50 (PAD4): > 1000 µM
- inhibition of PAD4 (PAD4): essentially no inhibition was observed
- Ki (HpAgD [2]): 530 ± 150 µM
- kinact/KI (HpAgD [2]): 66.7 M⁻¹ s⁻¹
- residual activity after dialysis (irreversibility) (HpAgD [3]): enzyme activity was not recovered; also recorded: irreversibly inhibit HpAgD
- substrate protection against inactivation (HpAgD [4]): substrate can protect against enzyme inactivation
- site of modification (HpAgD [5]): modifying Cys324
- stability in aqueous buffer [6]: excellent stability

Molecule: NCCCCN=C(N)N [Agmatine]
- decrease in kcat, D198A vs wild type (D198A HpAgD): 17 fold
- increase in Km, D198A vs wild type (D198A HpAgD): 5 fold
- rate (kcat/Km) relative to all other substrates tested (Wild Type HpAgD; Wild Type HpAgD): > 10^4 fold
- kcat (Wild Type HpAgD; steady state, Wild Type HpAgD, pH 8.0, 37 °C): ~ 5 min^−1

Molecule: NC(=O)[C@H](CCCN=C(N)N)NC(=O)c1ccccc1 [BAA, N-α-Benzoyl-L-arginine amide]
- ability to serve as HpAgD substrate (Wild Type HpAgD): none of these compounds served as a substrate

Molecule: CCOC(=O)[C@H](CCCN=C(N)N)NC(=O)c1ccccc1 [BAEE, N-α-Benzoyl-L-arginine ethyl ester]
- ability to serve as HpAgD substrate (Wild Type HpAgD): none of these compounds served as a substrate

Molecule: COC(=O)[C@H](CCCNC(=N)N)NC(=O)c1ccccc1 [BAME, N-α-Benzoyl-L-arginine methyl ester]
- ability to serve as HpAgD substrate (Wild Type HpAgD): none of these compounds served as a substrate

Molecule: NC(=O)[C@H](CCCN=C(N)CCl)NC(=O)c1ccccc1 [Cl-amidine]
- inhibition of HpAgD (HpAgD [1]): did not afford HpAgD inhibition
- IC50 (HpAgD [1]; [10]): > 500 µM

Molecule: [Co+2] [Co^2+]
- IC50 (HpAgD [7]): 13 ± 5.5 µM

Molecule: NC(=O)[C@H](CCCN=C(N)CF)NC(=O)c1ccccc1 [F-amidine]
- inhibition of HpAgD (HpAgD [1]): did not afford HpAgD inhibition
- IC50 (HpAgD [1]; [10]): > 500 µM

Molecule: [Ni+2] [Ni^2+]
- IC50 (HpAgD [7]): 100 ± 3.9 µM

Molecule: [Zn+2] [Zn^2+]
- IC50 (HpAgD [7]): 30 ± 3 µM

Molecule: Ac-SGRGK-COO^− (Ac-SGRGK-OH; UniProt P62805 2-6, looked up, fragment) [Ac-H4-5]
- ability to serve as HpAgD substrate (Wild Type HpAgD): none of these compounds served as a substrate

Molecule: D198A HpAgD (Helicobacter pylori 26695; D198A)
- Km (N=C(N)NCCCCN): 170 ± 79.8 µM
- kcat (N=C(N)NCCCCN): 0.00467 s⁻¹
- kcat/Km (N=C(N)NCCCCN): 28.3 M⁻¹ s⁻¹

- stoichiometry N [8]: 2
Molecule: Helicobacter pylori agmatine deiminase (HpAgD), untagged wild type (from UniProt O24890 1-330) (enzyme)

B1: Wild Type HpAgD (Helicobacter pylori 26695) (protein)
chain: T2 sequence (O24890 1-330)
- Km [9]: 33 ± 8.8 µM
- kcat [9]: 0.0817 s⁻¹
- kcat/Km [9]: 2450 M⁻¹ s⁻¹
